“And” between values parts separate entries of the source, which are not always exact repeats. Identical values can stand only once. “Also recorded” adds a separate entry of the source.
Experiments:
[1] = system: NZB/NZW mice; experiment: Severe glomerulonephritis (proteinuria by urine dipstick) in SLE model mice; type: in vivo; conditions: for Mice with severe glomerulonephritis (%): proteinuria more than 1 g/L (2+)
Experimental: (§1) In vivo studies on the activity of arsenic compound were carried out by using an experimental animal model of human Systemic Lupus Erythematosus. NZB/NZW denotes the mouse strain that spontaneously develops an autoimmune syndrome having notable similarities to human Systemic Lupus Erythematosus. Autoimmune disease in NZB/NZW mice is characterized by antinuclear antibodies (IgG) production about 4 months of age, and glomerulonephritis with proteinuria is developed when at 9 months of age, and that is the major cause of death (uremia).
(§2) At 24 weeks of age, mice (3 groups) were treated 3 times per week with PBS (Group I as positive control), 2.5 mg/kg of As2O3 (Group II), or 5 mg/kg of As2O3 (Group III) administered intraperitoneally. The treatment was stopped at 28 weeks of age. Mice were observed daily for clinical signs of disease and for mortality and were bled every 4 weeks for determination of anti-DNA antibody production.
Urine protein levels were determined by colorimetric analysis using dipsticks (Multistix®, Bayer). Severe glomerulonephritis was defined as proteinuria more than 1 g/L (2+) by urine dipstick.

[2] = system: OVA-specific IgE; experiment: OVA-specific IgE in serum of OVA-immunized mice; type: in vivo, BALB/c mice
Experimental: (§3) BALB/c mice (female, 6-8 weeks) were immunized with ovalbumin (OVA) at day 0, 14, 21 and 28. 38 days later, animals were injected with arsenic trioxide (ATO) i.p. for 7 days and antigen challenges with OVA were performed at day 42, 43, 44. At day 45, the airway enhanced pause (PenH) values were measured. 48 hours after the last antigen challenges, the mice were sacrificed, the trachea cannulated, and bronchoalveolar lavage (BAL) was performed by four repeated lavages with balanced salt solution (HBSS) injected into the lungs via the trachea. Total cell counts were performed with a hemocytometer after staining with trypan blue, and then cytospins were prepared, and a differential count of 300 cells per slide was performed. To obtain the absolute number of each leukocyte subtype in the lavage, the percentage of each cell type was multiplied by the total number of cells that were recovered from the bronchoalveolar lavage fluid (BALF). Eotaxin in the BALF was measured via ELISA. Four groups of mice were treated as Table 3.1.
Group A mice were challenged by PBS only and then treated by PBS, too. Group B mice were immunized by ovalbumin and then treated by PBS only. […]
After antigen challenges, mice serum were prepared and OVA-specific IgE values in serum were detected for evidence of immunization.

[3] = system: dsDNA; experiment: Serum IgG anti-dsDNA ELISA in SLE model mice; type: in vivo, NZB/NZW mice
Experimental: as §1, §2
Standard ELISA assay to measure the serum levels of anti-DNA antibodies was performed as follows. The plates were coated 10 μg/mL mBSA 4° C. overnight before coating dsDNA and ssDNA diluted with PBS to concentration of 7.5 μg/mL. ssDNA was prepared by boiling for 20 min then placed on ice immediately for 20 min. After overnight incubation at 4° C., the plates were washed and blocked with gelatin-PBS solution. The serum was diluted and then added to the appropriate wells, which were then incubated at 37° C. for 45 min. Horseradish peroxidase-comjugated anti-mouse γ-chain-specific antibodies were added. After incubation at 37° C. for 50 min, then room temperature for 10 min, 2,2′-azino-bisC3-ethylbenzthiazoline-6-sulphonic acid (ABTS) solution was used as substrate and the absorbance was measured at 405 nm. The level of anti-DNA IgG is presented as ELISA units (EU/ml) compared with mAb 10F10. The OD value generated by 74 ng/ml of 10F10 Ab was defined as 1 EU/ml for anti-DNA IgG. The level of anti-nucleosome IgG was calculated as EU by comparison with 10F10 Ab. The absorbance value generated by 231 ng/ml of 10F10 Ab was defined as 1 EU/ml of anti-nucleosome IgG.

[4] = system: T lymphocytes (CD3+); experiment: Caspase-3 (Phiphilux) apoptosis within gated PBMC subsets; type: cell-based
Description: 3. The detection of apoptosis within different subsets of PBMCs by the combination of mAb-fluorescein tandem staining and the treatment of Phiphilux through flowcytometry. Phiphilux is a substrate of caspase-3, composed of a specific oligo-peptide with its sequence subjected to functional caspase-3 cutting and, at each end of the peptide, is covalently coupled to two identical fluorophores.
Thus, the conclusion is that T lymphocytes are more sensitive to arsenic trioxide according the flow data.

[5] = system: cultured human fibroblasts; experiment: Cell cycle effect on cultured human fibroblasts (MTT, flowcytometry, western blot, promoter luciferase); type: cell-based; conditions: 1 to 10 μM, 24 hr
Description: Arsenic trioxide has been approved for APL (acute promyelocytic leukemia) therapy, and though much work remains to be done on the application of arsenic trioxide and the mechanism of arsenic toxicity is not fully understood, several recent works pointed out the involvement of oxidative stress in arsenic-induced DNA damage in living cells may cause cell cycle arrest.

[6] = system: white blood cells in BALF; experiment: Differential white blood cell count in BALF, OVA-immunized mice; type: in vivo, BALB/c mice; conditions: for Lymphocyte concentration in BALF / Neutrophil concentration in BALF: mean; for Eosinophil concentration in BALF / Macrophage concentration in BALF: mean ± SD
Experimental: as §3
(§4) Group A mice were challenged by PBS only and then treated by PBS, too. Group B mice were immunized by ovalbumin and then treated by PBS only. Group C mice were immunized by ovalbumin and then treated by arsenic trioxide in a dosage of 2.5 mg per kg for mice. Group D mice were challenged by ovalbumin as group B and C and then treated by arsenic trioxide in a dosage of 5 mg/kg.
The white blood cells in BALF were counted and differentiated. Every kind of white cell was increased in immunized groups when in comparison with the non-immunized group.

[7] = system: BALB/c mice; experiment: Airway responsiveness to methacholine (PenH, pulmonary function test), OVA-immunized mice; type: in vivo
Experimental: as §3, §4
The mice were challenged with methacholine (Mch.) in an increasing concentration and the airway constriction of the mice was measured by using pulmonary function test, whereafter the data of Table 3.5 was obtained. […] The result is also consistent with the results of eotaxin and eosinophil in BALF.

Substance: arsenic trioxide
- onset of severe proteinuria in comparison with untreated animals ([1]; 2.5 mg/kg ATO and 5 mg/kg ATO): marked delay in the onset of severe proteinuria
- Mice with severe glomerulonephritis (%) ([1]; 2.5 mg/kg, 37 weeks): 16.67%
- Mice with severe glomerulonephritis (%) ([1]; 2.5 mg/kg, 40 weeks): 40%
- Mice with severe glomerulonephritis (%) ([1]; 5 mg/kg, 37 weeks): 25%
- Mice with severe glomerulonephritis (%) ([1]; 5 mg/kg, 40 weeks): 25%
- OVA-specific IgE (SI.) in serum, Mean ([2]; Group C: OVA, ATO 2.5 mg/kg i.p. for 7 days): 2.20 SI.
- OVA-specific IgE (SI.) in serum, Mean ([2]; Group D: OVA, ATO 5 mg/kg i.p. for 7 days): 1.96 SI.
- IgG Anti-dsDNA titer ([3]; 2.5 mg/kg i.p. 3 times per week, before treatment): 0.262 ELISA Unit
- IgG Anti-dsDNA titer ([3]; 2.5 mg/kg, 4 weeks after treatment): 0.572 ELISA Unit
- IgG Anti-dsDNA titer ([3]; 2.5 mg/kg, 8 weeks after treatment): 0.464 ELISA Unit
- IgG Anti-dsDNA titer ([3]; 2.5 mg/kg, 12 weeks after treatment): 0.442 ELISA Unit
- IgG Anti-dsDNA titer ([3]; 5 mg/kg i.p. 3 times per week, before treatment): 0.362 ELISA Unit
- IgG Anti-dsDNA titer ([3]; 5 mg/kg, 4 weeks after treatment): 0.285 ELISA Unit
- IgG Anti-dsDNA titer ([3]; 5 mg/kg, 8 weeks after treatment): 0.357 ELISA Unit
- IgG Anti-dsDNA titer ([3]; 5 mg/kg, 12 weeks after treatment): 0.702 ELISA Unit
- anti-DNA antibody levels in sera compared to PBS (Tables 4.1 and 4.2, ssDNA and dsDNA) ([3]; NZB/NZW mice, 2.5 or 5 mg/kg): significantly lower anti-DNA antibody levels
- Levels of T cell apoptosis (%) after 48 hr treatment ([4]; 1 μM): 36.1%
- Levels of T cell apoptosis (%) after 48 hr treatment ([4]; 5 μM): 96% and 96.2%
- effect on cell cycle of fibroblasts [5]: cell cycle arrest especially in G2/M
- Lymphocyte concentration in BALF ([6]; Group C: OVA, ATO 2.5 mg/kg): 37.0 ×1000 cells/ml
- Neutrophil concentration in BALF ([6]; Group C: OVA, ATO 2.5 mg/kg): 200.7 ×1000 cells/ml
- Eosinophil concentration in BALF ([6]; Group C: OVA, ATO 2.5 mg/kg): 28.6 ± 13.0 ×1000 cells/ml
- Macrophage concentration in BALF ([6]; Group C: OVA, ATO 2.5 mg/kg): 621.0 ± 199.6 ×1000 cells/ml
- Lymphocyte concentration in BALF ([6]; Group D: OVA, ATO 5 mg/kg): 28.7 ×1000 cells/ml
- Neutrophil concentration in BALF ([6]; Group D: OVA, ATO 5 mg/kg): 244.0 ×1000 cells/ml
- Eosinophil concentration in BALF ([6]; Group D: OVA, ATO 5 mg/kg): 33.2 ± 12.5 ×1000 cells/ml
- Macrophage concentration in BALF ([6]; Group D: OVA, ATO 5 mg/kg): 499.1 ± 131.6 ×1000 cells/ml
- effect on eosinophil number in BALF ([6]; group C and D vs group B): diminish significantly the eosinophil number
- effect on airway hyper-reactivity / responsiveness to methacholine ([7]; BALB/c mice, especially 2.5 mg/kg): does decrease the airway responsiveness; also recorded: successfully blocked
- airway constriction by pulmonary function test (PenH) ([7]; Group C: ATO 2.5 mg/kg, Mch 6.25 mg/ml, mean ± SD): 3.62 ± 0.47
- airway constriction by pulmonary function test (PenH) ([7]; Group C: ATO 2.5 mg/kg, Mch 12.5 mg/ml, mean ± SD): 7.83 ± 1.13
- airway constriction by pulmonary function test (PenH) ([7]; Group C: ATO 2.5 mg/kg, Mch 25 mg/ml, mean ± SD, p<0.05 vs Group B): 10.15 ± 0.84
- airway constriction by pulmonary function test (PenH) ([7]; Group C: ATO 2.5 mg/kg, Mch 50 mg/ml, mean, p<0.05 vs Group B): 9.83
- airway constriction by pulmonary function test (PenH) ([7]; Group D: ATO 5 mg/kg, Mch 6.25 mg/ml, mean ± SD): 2.55 ± 0.35
- airway constriction by pulmonary function test (PenH) ([7]; Group D: ATO 5 mg/kg, Mch 12.5 mg/ml, mean ± SD): 8.82 ± 0.88
- airway constriction by pulmonary function test (PenH) ([7]; Group D: ATO 5 mg/kg, Mch 25 mg/ml, mean ± SD): 11.57 ± 1.52
- airway constriction by pulmonary function test (PenH) ([7]; Group D: ATO 5 mg/kg, Mch 50 mg/ml, mean): 12.51

Source: patent publication US20060292243A1, “Arsenic compounds for the treatment of the arsenic-sensitive blast-cell related diseases” (priority 2005, published 2006)
